Experimental data as given in patent US20210093730A1, “BIOMARKERS FOR ANTIBODY-DRUG CONJUGATE MONOTHERAPY OR COMBINATION THERAPY” (Immunomedics, Inc., priority 2019, published 2021).
“And” between values parts separate entries of the source, which are not always exact repeats. Equal entries are not always repeated. Where two headings read alike, the source gives them in different places.

Columns and labels:
[1] = system: metastatic small-cell lung cancer
Description: Previous therapy had to be completed at least 4 weeks before enrollment.
Treatment was continued until disease progression, initiation of alternative anticancer therapy, unacceptable toxicity, or withdrawal of consent.
The primary endpoint was the proportion of patients with a confirmed objective response, assessed approximately every 8 weeks until disease progression, by each institution's radiology group or a contracted local radiology service. […] Partial (PR) or complete responses (CR) required confirmation within 4 to 6 weeks after the initial response. Clinical benefit rate (CBR) is defined as those patients with an objective response plus stable disease (SD)≥4 months. Survival was monitored every 3 months until death or withdrawal of consent.
Safety evaluations were conducted during scheduled visits or more frequently if warranted.
The frequency and severity of adverse events (AEs) were defined by MedDRA Preferred Term and System Organ Class (SOC) version 10, with severity assessed by NCI-CTCAE v4.03.
The protocol provided that objective response rates (ORR) were determined for patients who received ≥2 doses (1 cycle) and had their initial 8-week CT assessment. Duration of response is defined in accordance to RECIST 1.1 criteria, with those having an objective response marked from time of the first evidence of response until progression, while stable disease duration is marked from the start of treatment until progression. PFS and OS were defined from the start of treatment until an objective assessment of progression was determined (PFS) or death (OS).

[2] = system: diverse metastatic solid cancers
Description: Patients were refractory/relapsed after standard treatment regimens for metastatic cancer.

[3] = system: metastatic triple-negative breast cancer (TNBC); details: second line or later; cited from earlier work
[4] = SG given as >3 line, no prior topotecan/irinotecan (N = 9)
[5] = SG given as >3 line, prior topotecan/irinotecan (N = 15)
[6] = patients resistant (N = 19) to 1st line
[7] = patients sensitive (N = 24) to 1st line
[8] = 48 assessable pts excluding PDC
[9] = esophageal cancer, 4 assessable patients

sacituzumab govitecan
confirmed PR ([1]; 19 patients resistant to first-line platinum): 16% | confirmed PR ([1]; 24 patients sensitive to first-line platinum): 17% | PD, % ([1]; 43 assessable patients): (35%) | stable disease including unconfirmed PR ([1]; 43 assessable patients (21 patients)): 49% | treatment-related deaths ([1]; 53 patients): No treatment-related deaths were observed | OS, seven confirmed PR patients ([1]; 95% CI 6.2, 20.9): 9.2 months | OS, ten patients with SD >=4 months ([1]; 95% CI 7.5, 22.4): 8.3 months | median PFS, confirmed PR group ([1]; 95% CI 7.6, 21.9): 7.9 months | Duration of confirmed objective response, median ([1]; Kaplan-Meier, 95% CI 3.6, 19.9): 5.7 months | Clinical benefit rate (PR + SD >= 4 months), % ([1]; SG as >=3 line (N = 24)): (38%) | OS median ([1]; SG as >=3 line (N = 24)): 7.0 months | PFS median ([1]; SG as >=3 line (N = 24)): 3.7 months | Clinical benefit rate (PR + SD >= 4 months), % ([1]; SG as second line (N = 19)): (37%) | OS median ([1]; SG as second line (N = 19)): 8.1 months | PFS median ([1]; SG as second line (N = 19)): 3.6 months | Clinical benefit rate (PR + SD >= 4 months), % [1, 4]: (33%) | OS median [1, 4]: 5.5 months | PFS median [1, 4]: 3.7 months | Clinical benefit rate (PR + SD >= 4 months), % [1, 5]: (40%) | OS median [1, 5]: 8.8 months | PFS median [1, 5]: 3.8 months and 3.6 months | grade 3 or 4 anemia ([1]; human, in vivo): 8% | grade 3 or 4 diarrhea ([1]; human, in vivo): 9% | grade 3 or 4 fatigue ([1]; human, in vivo): 13% | grade 3 or 4 hyponatremia ([1]; human, in vivo): 8% | grade 3 or 4 increased alkaline phosphatase ([1]; human, in vivo): 8% | grade 3 or 4 neutropenia ([1]; human, in vivo): 34% | infusion-related reactions ([1]; human, in vivo): No infusion-related reactions were reported | patients with dose reduction ([1]; human, in vivo): 13% | Overall survival, median ([1]; intention-to-treat N = 53): 7.0 months | Progression-free survival, median ([1]; intention-to-treat N = 53): 3.6 months | duration of SD, patient with 17% tumor shrinkage ([1]; one patient with prior CPI): 8.7 months | duration of SD, patient with no change in tumor size ([1]; one patient with prior CPI): 3.7 months | tumor shrinkage, patient with SD ([1]; one patient with prior CPI): 17% | tumor shrinkage on first assessment, patient with unconfirmed PR ([1]; one patient with prior checkpoint inhibitor (CPI)): 54% | Clinical benefit rate (PR + SD >= 4 months), % [1, 6]: (26%) | OS median [1, 6]: 6.2 months | PFS median [1, 6]: 3.6 months | Clinical benefit rate (PR + SD >= 4 months), % [1, 7]: (50%) | OS median [1, 7]: 8.3 months | PFS median [1, 7]: 3.8 months | PR ([1]; second-line setting (3/19)): 16% | median time to response ([1]; seven confirmed PR, range 1.8 to 3.6): 2.0 months | confirmed PR ([1]; starting dose 8 mg/kg, 13 patients): 8% | CBR ([1]; starting dose 10 mg/kg (14/30)): 47% | confirmed PR ([1]; starting dose 10 mg/kg (N = 30)): 20% | Kaplan-Meier-derived median duration of SD ([1]; ten patients with SD >=4 months, 95% CI 5.2, 9.7): 5.6 months | confirmed PR ([1]; third or higher line (N = 24)): 16% | partial response (PR), % of patients [2, 8]: 15% | stable disease (SD), % of patients [2, 8]: 56% | disease response, % of patients ([2]; 48 assessable pts excluding PDC, printed 38 pts): 79% | maximum reduction in target lesions ([2]; CRC case, after 10 months of treatment): 65% | CEA after treatment ([2]; CRC case, decrease from 781 ng/mL): 26.5 ng/mL | reduction in target lesions at first CT assessment ([2]; CRC case, starting dose 8 mg/kg): 37% | total response [PR+SD] ([2]; CRC, 12/18): 67% | PD, patients ([2]; CRC, 18 assessable patients): 6 patients | PR, patients ([2]; CRC, 18 assessable patients): 1 patients | primary target lesion size at first CT ([2]; NSCLC case, 5.6 cm at start, after 6th dose): 3.2 cm | total response [PR+SD] ([2]; NSCLC, 4/5): 80% | PD, patients ([2]; NSCLC, 5 assessable patients): 1 patients | PR, patients ([2]; NSCLC, 5 assessable patients): 1 patients | reduction in target lesions ([2]; SCLC case, 12 mg/kg reduced to 6.8 mg/kg, after two months): 38% | total response [PR+SD] ([2]; SCLC, 2/4): 50% | PD, patients ([2]; SCLC, 4 assessable patients): 2 patients | PR, patients ([2]; SCLC, 4 assessable patients): 2 patients | total response [PR+SD] ([2]; TNBC, 6/8): 75% | PD (progressive disease), patients ([2]; TNBC, 8 assessable patients): 2 patients | PR (partial response), patients ([2]; TNBC, 8 assessable patients): 2 patients | total response [PR+SD] ([2]; all, 34/48): 71% | PD, patients ([2]; all, 48 assessable patients): 14 patients | PR, patients ([2]; all, 48 assessable patients): Seven | PR, patients ([2]; all, 48 assessable patients, listed as hRS7-SN-38): 7 patients | total response [PR+SD] ([2]; esophageal cancer, 3/4): 75% | PD, patients [2, 9]: 1 patients | PR, patients [2, 9]: 1 patients | Abdominal pain, Grade 3 ([2]; in vivo): 0 | Abdominal pain, Grade 4 ([2]; in vivo): 0 | Abdominal pain, TOTAL ([2]; in vivo): 11% | Alopecia, TOTAL ([2]; in vivo): 40% | Anemia, Grade 4 ([2]; in vivo): 0 | Anemia, TOTAL ([2]; in vivo): 13% | Deep vein thrombosis, Grade 3 ([2]; in vivo): 1 (2%) | Deep vein thrombosis, Grade 4 ([2]; in vivo): 0 | Deep vein thrombosis, TOTAL ([2]; in vivo): 2% | Diarrhea, Grade 4 ([2]; in vivo): 0 | Diarrhea, TOTAL ([2]; in vivo): 47% | Dysgeusia, Grade 3 ([2]; in vivo): 0 | Dysgeusia, Grade 4 ([2]; in vivo): 0 | Dysgeusia, TOTAL ([2]; in vivo): 15% | Fatigue, Grade 4 ([2]; in vivo): 0 | Fatigue, TOTAL ([2]; in vivo): 55% | Hypokalemia, Grade 3 ([2]; in vivo): 1 (2%) | Hypokalemia, Grade 4 ([2]; in vivo): 0 | Hypokalemia, TOTAL ([2]; in vivo): 11% | Nausea, Grade 4 ([2]; in vivo): 0 | Nausea, TOTAL ([2]; in vivo): 53% | Neutropenia, TOTAL ([2]; in vivo): 43% | Pyrexia, Grade 3 ([2]; in vivo): 0 | Pyrexia, Grade 4 ([2]; in vivo): 0 | Pyrexia, TOTAL ([2]; in vivo): 13% | Vomiting, Grade 4 ([2]; in vivo): 0 | Vomiting, TOTAL ([2]; in vivo): 32% | WBC Decrease, Grade 3 ([2]; in vivo): 1 (2%) | WBC Decrease, Grade 4 ([2]; in vivo): 0 | WBC Decrease, TOTAL ([2]; in vivo): 6% | alopecia ([2]; in vivo): 40% | anemia, grade 3 ([2]; in vivo): 2 (4%) | anti-hRS7 or anti-SN-38 antibodies ([2]; in vivo): No anti-hRS7 or anti-SN-38 antibodies were detected | diarrhea ([2]; in vivo): 47% | diarrhea >=G3 ([2]; in vivo): 9% | diarrhea, grade 3 ([2]; in vivo): 4 (9%) | fatigue ([2]; in vivo): 55% | fatigue >=G3 ([2]; in vivo): 9% | fatigue, grade 3 ([2]; in vivo): 4 (9%) | nausea ([2]; in vivo): 53% | nausea >=G3 ([2]; in vivo): 0% | nausea, grade 3 ([2]; in vivo): 0 | neutropenia >=G3 ([2]; in vivo): 28% | neutropenia G4 ([2]; in vivo): 4% | neutropenia, grade 3 ([2]; in vivo): 11 (24%) | neutropenia, grade 4 ([2]; in vivo): 2 (4%) | vomiting ([2]; in vivo): 32% | vomiting >=G3 ([2]; in vivo): 2% | vomiting, grade 3 ([2]; in vivo): 1 (2%) | median time to progression (TTP), PDC pts ([2]; pancreatic cancer, 8 wks in last prior therapy): 12.7 wks and 11.9 wks | TTP, remaining 48 pts ([2]; range 6.0 to 51.4 wks): ≥ 12.6 wks | median progression-free survival (PFS) [3]: 5.5 months | overall survival (OS) [3]: 13.0 months | response rate [3]: 33.3%
